Where two headings read alike, the source gives them in different places. Where only a bound is given, the exact number is not on record here.

The subject of assay [1] is fetal hemoglobin gene HBG1. Nature of the assay: HBG1 Nanostring Assay in CD34+ HSPC erythroid differentiation culture. The class given is cell-based, human. The conditions noted are these: for EC50: Homo sapiens, 240 h, HBG1 induction, Day10 of erythroid differentiation; for Nanostring Ymax obs (%): relative to a control compound (C1). An outline of the steps: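 HBG1 counts came from direct nCounter hybridization (67° C, 22 h) of day-10 lysates, normalized to ERCC positive controls and a housekeeping gene, giving EC50 and Ymax versus a reference compound. Compounds in 0.1% DMSO were present from day −2 while cells underwent EPO/SCF/IL-3 erythroid differentiation, with IL-3 dropped at day 7, at 37° C.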

For assay [2], the system named is Cullin-3 (CUL3) neddylation. Nature of the assay: AlphaLISA assay for Cullin-3 (CUL3) neddylation in TF 1 cells. The format is cell-based. The conditions noted are these: Homo sapiens, TF-1, 3 h, 3 hours treatment. An outline of the steps: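 Neddylated CUL3 was quantified by AlphaLISA in lysates of TF 1 cells exposed for 3 h to test compound in IMDM without supplements. Percent inhibition set between vehicle and 1 μM DI-1548 positive control; IC50 derived by Hill-equation fitting of dose-response curves.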

Assay [3] concerns the target DCN1 (DCUND1) protein PONY domain (Homo sapiens (Human), UniProt Q96GG9). Nature of the assay: TR-FRET assay, DCN1 binding with FAM-labeled probe. The essentials:
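First, the E. coli-derived PONY domain was biotinylated and paired with streptavidin Tb cryptate. Compounds in 0.1% DMSO were then added to DCN1 and FAM-probe (5 nM/20 nM, or 0.31 nM/900 nM total with 800 nM unlabelled) in TritonX, 200 mM NaCl buffer. Finally, TR-FRET ratios were recorded at 1, 5 and 24 hrs.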
For orientation: Time-resolved FRET reads energy transfer from a long-lived donor to a nearby acceptor.

The next assay addresses DCN1 protein (Homo sapiens (Human), UniProt Q96GG9). Nature of the assay: Intact Protein MS Analysis with the RapidFire-TOF System (covalent adduct formation). The format is binding. The conditions noted are these: MS Emax; 400 nM DCN1, 3 hours at room temperature. An outline of the steps:
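Tag-cleaved human DCN1 (400 nM) expressed in E. coli, in 25 mM Tris-HCl, 200 mM NaCl, 1 mM DTT, was incubated with 11 compound concentrations for 3 h at room temperature and quenched with 0.2% formic acid. Intact-protein Q-TOF MS with deconvolution detected the compound adduct mass.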

The mark [4] stands for this setting: 24 hr after treatment with compound, read-out: TR FRET IC50 24 hr.
The mark [5] stands for this setting: TR FRET IC50 1 hr (nM), 1 hr after treatment with compound.
Setting [6] is: read-out: TR FRET IC50 1 hr, 1 hr after treatment with compound.

Chain of DCN1 (DCUND1) protein PONY domain (Q96GG9 60-248): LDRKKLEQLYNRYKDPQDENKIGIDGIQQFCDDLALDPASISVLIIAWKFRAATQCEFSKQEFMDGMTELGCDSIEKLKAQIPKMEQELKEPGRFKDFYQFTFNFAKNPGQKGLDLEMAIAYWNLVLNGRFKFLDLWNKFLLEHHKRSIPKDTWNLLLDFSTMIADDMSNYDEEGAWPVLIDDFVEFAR
Chain of DCN1 protein (Q96GG9 whole entry): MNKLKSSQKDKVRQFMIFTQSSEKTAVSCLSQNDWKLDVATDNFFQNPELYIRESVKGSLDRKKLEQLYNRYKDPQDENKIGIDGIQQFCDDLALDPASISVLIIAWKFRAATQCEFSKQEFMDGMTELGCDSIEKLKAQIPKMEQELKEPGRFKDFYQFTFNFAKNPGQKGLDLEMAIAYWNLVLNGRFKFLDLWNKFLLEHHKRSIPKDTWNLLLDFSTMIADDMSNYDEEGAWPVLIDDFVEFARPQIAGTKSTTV

`C=C(C(=O)O)c1nn(-c2ccccc2)c2c1[C@H](c1ccc(F)cc1)[C@H](NC(=O)c1cccc(C(F)(F)F)c1)C(=O)N2CC` [Compound I-153, 2-((4S,5S)-7-ethyl-4-(4-fluorophenyl)-6-oxo-1-phenyl-5-(3-(trifluoromethyl)benzamido)-4,5,6,7-tetrahydro-1H-pyrazolo[3,4-b]pyridin-3-yl)acrylic acid] yielded an EC50 in assay [1] of 100 to 1000 nM. Besides, the “Nanostring Ymax obs (%)” value in assay [1] is “++ (Nanostring Ymax greater than 50.0 and less than or equal to 100.0)”. Besides, the IC50 in assay [2] is at most 100 nM; in assay [3] (setting [4]), at most 200 nM; in assay [3] (setting [5]) it was 200 to 1000 nM. Moreover, the “% Adduct Formation” value on DCN1 protein is “++ (MS Emax % adduct formation greater than 30.0 and less than or equal to 80.0)”.
In turn, `C=C(C(=O)O)c1nn(-c2ccccc2)c2c1[C@@H](c1ccc(F)cc1)[C@@H](NC(=O)c1cccc(C(F)(F)F)c1)C(=O)N2CC` [Compound I-77, 2-((4R,5R)-7-ethyl-4-(4-fluorophenyl)-6-oxo-1-phenyl-5-(3-(trifluoromethyl)benzamido)-4,5,6,7-tetrahydro-1H-pyrazolo[3,4-b]pyridin-3-yl)acrylic acid] came in with an EC50 in assay [1] above 1000 nM. Further, in assay [1], the “Nanostring Ymax obs (%)” value is “+ (Nanostring Ymax greater than or equal to 0.0 and less than or equal to 50.0)”. Also, the IC50 in assay [2] is above 1000 nM; in assay [3] (setting [4]), 1000 to 3000 nM; in assay [3] (setting [5]) it was 1000 to 3000 nM. The “% Adduct Formation” value at DCN1 protein was “+ (MS Emax % adduct formation greater than or equal to 0.0 and less than or equal to 30.0)”.
Take `CCN1C(=O)[C@@H](NC(=O)c2cccc(C(F)(F)F)c2)[C@@H](c2ccc(F)cc2)c2c(C(=O)N3[C@H](C#N)C[C@H]4C[C@H]43)nn(C3COC3)c21` [Compound I-362, N-((4S,5S)-3-((1R,3S,5R)-3-cyano-2-azabicyclo[3.1.0]hexane-2-carbonyl)-7-ethyl-4-(4-fluorophenyl)-1-(oxetan-3-yl)-6-oxo-4,5,6,7-tetrahydro-1H-pyrazolo[3,4-b]pyridin-5-yl)-3-(trifluoromethyl)benzamide]: the EC50 in assay [1] is at most 100 nM. Further, the “Nanostring Ymax obs (%)” value in assay [1] was “++ (Nanostring Ymax greater than 50.0 and less than or equal to 100.0)”. Moreover, the IC50 was at most 100 nM in assay [2], at most 200 nM in assay [3] (setting [4]) and at most 200 nM in assay [3] (setting [6]). The “% Adduct Formation” value at DCN1 protein was “+++ (MS Emax % adduct formation greater than 80.0 and less than or equal to 100.0)”.
In turn, `CCN1C(=O)[C@@H](NC(=O)c2cccc(C(F)(F)F)c2)[C@@H](c2ccc(F)cc2)c2c(C(=O)N3CCC[C@H]3C#N)nn(C3CCOCC3)c21` (mixture of isomers) [Compound I-292] returned an EC50 in assay [1] of at most 100 nM. Also, the “Nanostring Ymax obs (%)” value in assay [1] was “+++ (Nanostring Ymax greater than 100.0)”. For the same molecule, the results for the IC50 in assay [2], in assay [3] (setting [4]) and in assay [3] (setting [6]) were at most 100 nM, at most 200 nM and at most 200 nM, respectively. The “% Adduct Formation” value on DCN1 protein was “+++ (MS Emax % adduct formation greater than 80.0 and less than or equal to 100.0)”.
In assay [1], `CCN1C(=O)[C@@H](NC(=O)c2cccc(C(F)(F)F)c2)[C@@H](c2ccc(F)cc2)c2c(CNC(=O)C(C)(C)C#N)nn(-c3ccccc3)c21` (racemic) [Compound I-7, rac-N-((4R,5R)-3-((2-cyano-2-methylpropanamido)methyl)-7-ethyl-4-(4-fluorophenyl)-6-oxo-1-phenyl-4,5,6,7-tetrahydro-1H-pyrazolo[3,4-b]pyridine-5-yl)-3-(trifluoromethyl)benzamide] registered an EC50 above 1000 nM. The “Nanostring Ymax obs (%)” value in assay [1] was “+ (Nanostring Ymax greater than or equal to 0.0 and less than or equal to 50.0)”. Besides, the IC50 in assay [2] fell in the range of 100 to 1000 nM; in assay [3] (setting [4]), 1000 to 3000 nM; in assay [3] (setting [5]) it was 1000 to 3000 nM. Also, on DCN1 protein, the “% Adduct Formation” value was “+ (MS Emax % adduct formation greater than or equal to 0.0 and less than or equal to 30.0)”.
With `C=C(CC(=O)OC)C(=O)NCc1nn(-c2ccccc2)c2c1[C@H](c1ccc(F)cc1)[C@H](NC(=O)c1cccc(C(F)(F)F)c1)C(=O)N2CC` (racemic) [Compound I-103], the EC50 in assay [1] fell in the range of 100 to 1000 nM. For the same molecule, the “Nanostring Ymax obs (%)” value in assay [1] was “+ (Nanostring Ymax greater than or equal to 0.0 and less than or equal to 50.0)”. Besides, the concentration for half-maximal inhibition (IC50) is above 1000 nM in assay [2], 200 to 1000 nM in assay [3] (setting [4]) and 200 to 1000 nM in assay [3] (setting [5]). The “% Adduct Formation” value on DCN1 protein was “+ (MS Emax % adduct formation greater than or equal to 0.0 and less than or equal to 30.0)”.
For `C[C@@H](NC#N)c1nn(-c2ccccc2)c2c1[C@H](c1ccc(F)cc1)[C@H](NC(=O)c1cccc(C(F)(F)F)c1)C(=O)N2CCO` [Compound I-274], in assay [1], the “Nanostring Ymax obs (%)” value is “+ (Nanostring Ymax greater than or equal to 0.0 and less than or equal to 50.0)”. The figures for the IC50 in assay [2], in assay [3] (setting [4]) and in assay [3] (setting [6]) were at most 100 nM, at most 200 nM and at most 200 nM, respectively. Further, the “% Adduct Formation” value at DCN1 protein is “+++ (MS Emax % adduct formation greater than 80.0 and less than or equal to 100.0)”.
`CCN1C(=O)[C@@H](NC(=O)c2cccc(C(F)(F)F)c2)[C@H](c2ccc(F)cc2)c2c(CNC(=O)/C=C(\C)C(=O)OC)nn(-c3ccccc3)c21` [Compound I-104]: the concentration giving a half-maximal response (EC50) in assay [1] was above 1000 nM. The “Nanostring Ymax obs (%)” value in assay [1] is “++ (Nanostring Ymax greater than 50.0 and less than or equal to 100.0)”. Also, the figures for the IC50 in assay [2], in assay [3] (setting [4]) and in assay [3] (setting [5]) were 100 to 1000 nM, 200 to 1000 nM and 200 to 1000 nM, respectively. Further, the “% Adduct Formation” value at DCN1 protein was “+ (MS Emax % adduct formation greater than or equal to 0.0 and less than or equal to 30.0)”.
Molecule `CCN1C(=O)[C@@H](NC(=O)c2cccc(C(F)(F)F)c2)[C@@H](c2ccc(F)cc2)c2c(C(=O)N3C[C@H](OC)C[C@H]3C#N)nn(C3CCOCC3)c21` [Compound I-358] returned a concentration for a half-maximal effect (EC50) in assay [1] of at most 100 nM. In assay [1], the “Nanostring Ymax obs (%)” value was “+++ (Nanostring Ymax greater than 100.0)”. Further, the IC50 was at most 100 nM in assay [2], at most 200 nM in assay [3] (setting [4]) and at most 200 nM in assay [3] (setting [6]). In addition, the “% Adduct Formation” value on DCN1 protein is “+++ (MS Emax % adduct formation greater than 80.0 and less than or equal to 100.0)”.
Molecule `C=C(C(=O)OCC)c1nn(-c2ccccc2)c2c1[C@H](c1ccc(F)cc1)[C@H](NC(=O)c1cccc(C(F)(F)F)c1)C(=O)N2CC` (racemic) [Compound I-35, rac-ethyl 2-((4R,5R)-7-ethyl-4-(4-fluorophenyl)-6-oxo-1-phenyl-5-(3-(trifluoromethyl)benzamido)-4,5,6,7-tetrahydro-1H-pyrazolo[3,4-b]pyridine-3-yl)acrylate] returned an EC50 in assay [1] of 100 to 1000 nM. The “Nanostring Ymax obs (%)” value in assay [1] is “+ (Nanostring Ymax greater than or equal to 0.0 and less than or equal to 50.0)”. Moreover, the IC50 in assay [2] was 100 to 1000 nM; in assay [3] (setting [4]), at most 200 nM; in assay [3] (setting [5]), above 3000 nM. In addition, the “% Adduct Formation” value on DCN1 protein is “+ (MS Emax % adduct formation greater than or equal to 0.0 and less than or equal to 30.0)”.
Take `C=CS(=O)(=O)N(C)Cc1nn(-c2ccccc2)c2c1[C@H](c1ccc(F)cc1)[C@H](NC(=O)c1cccc(C(F)(F)F)c1)C(=O)N2CC` (racemic) [Compound I-1]: in assay [1], the EC50 is above 1000 nM. In addition, in assay [1], the “Nanostring Ymax obs (%)” value was “++ (Nanostring Ymax greater than 50.0 and less than or equal to 100.0)”. For the same molecule, the IC50 is at most 100 nM in assay [2], at most 200 nM in assay [3] (setting [4]) and at most 200 nM in assay [3] (setting [6]). Moreover, the “% Adduct Formation” value on DCN1 protein was “+++ (MS Emax % adduct formation greater than 80.0 and less than or equal to 100.0)”.
`CCN1C(=O)[C@@H](NC(=O)c2cccc(C(F)(F)F)c2)[C@@H](c2ccc(F)cc2)c2c(C(=O)N3CC(F)(F)C[C@H]3C#N)nn(-c3ccccc3)c21` (racemic) [Compound I-251, N-((4RS,5RS)-3-(I-2-cyano-4,4-difluoropyrrolidine-1-carbonyl)-7-ethyl-4-(4-fluorophenyl)-6-oxo-1-phenyl-4,5,6,7-tetrahydro-1H-pyrazolo[3,4-b]pyridine-5-yl)-3-(trifluoromethyl)benzamide] yielded an EC50 in assay [1] of 100 to 1000 nM. Further, the “Nanostring Ymax obs (%)” value in assay [1] is “++ (Nanostring Ymax greater than 50.0 and less than or equal to 100.0)”. Further, the results for the IC50 in assay [2], in assay [3] (setting [4]) and in assay [3] (setting [5]) were at most 100 nM, at most 200 nM and at most 200 nM, respectively. Also, the “% Adduct Formation” value on DCN1 protein was “+++ (MS Emax % adduct formation greater than 80.0 and less than or equal to 100.0)”.
In assay [1], `C=CC(=O)N[C@@H](C)c1nn(-c2ccccc2)c2c1[C@H](c1ccc(F)cc1)[C@H](NC(=O)c1cccc(C(F)(F)F)c1)C(=O)N2CC` (mixture of isomers) [Compound I-143] gave an EC50 above 1000 nM. The “Nanostring Ymax obs (%)” value in assay [1] is “+ (Nanostring Ymax greater than or equal to 0.0 and less than or equal to 50.0)”. Moreover, the IC50 is above 1000 nM in assay [2], 200 to 1000 nM in assay [3] (setting [4]) and 200 to 1000 nM in assay [3] (setting [5]). The “% Adduct Formation” value at DCN1 protein was “+ (MS Emax % adduct formation greater than or equal to 0.0 and less than or equal to 30.0)”.

For orientation: EC50 means the concentration that produces a half-maximal response. High values mean weaker potency, low ones greater potency. In general, IC50 refers to the point on the concentration scale where inhibition reaches its midpoint.

The values above are taken from patent US20250163057A1, “DCN-1 MODULATING COMPOUNDS AND METHODS OF USE THEREOF” (Cellarity, Inc., priority 2023, published 2025).
